Measurements taken from US10526336B2, “Fused heteroaryl derivatives as orexin receptor antagonists” (Merck Sharp & Dohme Corp., priority 2014, dated 2020).

Biological target: human orexin-2 receptor (Homo sapiens (Human), UniProt O43614)
Test: FLIPR Ca2+ Flux Assay, orexin-2 receptor antagonism in CHO cells
Format: cell-based
Conditions: CHO cells expressing the human orexin-2 receptor; agonist 70 pM Ala-6,12 orexin-A; read-out: hOX2 FLIPR IC50
Protocol: The utility of the compounds in accordance with the present invention as orexin receptor OX1R and/or OX2R antagonists may be readily determined without undue experimentation by methodology well known in the art, including the “FLIPR Ca^2+ Flux Assay” (Okumura et al., Biochem. Biophys. Res. Comm. 280:976-981, 2001). In a typical experiment the OX1 and OX2 receptor antagonistic activity of the compounds of the present invention was determined in accordance with the following experimental method. For intracellular calcium measurements, Chinese hamster ovary (CHO) cells expressing the rat orexin-1 receptor or the human orexin-2 receptor, are grown in Iscove's modified DMEM containing 2 mM L-glutamine, […], 1% hypoxanthine-thymidine supplement, 100 U/ml penicillin, 100 μg/ml streptomycin and 10% heat-inactivated fetal calf serum (FCS). The cells are seeded at 20,000 cells/well into Becton-Dickinson black 384-well clear bottom sterile plates coated with poly-D-lysine. All reagents are from GIBCO-Invitrogen Corp. The seeded plates are incubated overnight at 37° C. and 5% CO2. Ala-6,12 human orexin-A as the agonist is prepared as a 1 mM stock solution in 1% bovine serum albumin (BSA) and diluted in assay buffer (HBSS containing 20 mM HEPES, 0.1% BSA and 2.5 mM probenecid, pH7.4) for use in the assay at a final concentration of 70 pM. Test compounds are prepared as 10 mM stock solution in DMSO, then diluted in 384-well plates, first in DMSO, then assay buffer. On the day of the assay, cells are washed 3 times with 100 μl assay buffer and then incubated for 60 min (37° C., 5% CO2) in 60 μl assay buffer containing […] Fluo-4AM ester, 0.02% pluronic acid, and 1% BSA. The dye loading solution is then aspirated and cells are washed 3 times with 100 μl assay buffer. 30 μl of that same buffer is left in each well. Within the Fluorescent Imaging Plate Reader (FLIPR, Molecular Devices), test compounds are added to the plate in a volume of 25 μl, incubated for 5 min and finally 25 μl of agonist is added. Fluorescence is measured for each well at 1 second intervals for 5 minutes and the height of each fluorescence peak is compared to the height of the fluorescence peak induced by 70 pM Ala-6,12 orexin-A with buffer in place of antagonist. For each antagonist, IC50 value (the concentration of compound needed to inhibit 50% of the agonist response) is determined. Alternatively, compound potency can be assessed by a radioligand binding assay (described in Bergman et. al. Bioorg. Med. Chem. Lett. 2008, 18, 1425-1430) in which the inhibition constant (Ki) is determined in membranes prepared from CHO cells expressing either the OX1 or OX2 receptor. The intrinsic orexin receptor antagonist activity of a compound which may be used in the present invention may be determined by these assays.

human orexin-2 receptor, sequence (O43614 whole entry): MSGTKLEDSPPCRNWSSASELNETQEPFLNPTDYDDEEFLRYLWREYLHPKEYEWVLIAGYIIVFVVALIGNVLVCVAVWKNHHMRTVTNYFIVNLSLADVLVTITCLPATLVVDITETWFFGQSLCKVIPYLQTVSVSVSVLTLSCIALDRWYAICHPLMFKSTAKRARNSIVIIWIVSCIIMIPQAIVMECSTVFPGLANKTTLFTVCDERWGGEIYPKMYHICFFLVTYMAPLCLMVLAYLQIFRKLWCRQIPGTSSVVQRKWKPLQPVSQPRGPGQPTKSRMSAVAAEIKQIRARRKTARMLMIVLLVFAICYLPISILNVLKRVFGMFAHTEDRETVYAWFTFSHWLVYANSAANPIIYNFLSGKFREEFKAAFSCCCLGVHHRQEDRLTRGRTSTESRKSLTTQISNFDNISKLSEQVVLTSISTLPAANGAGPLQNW

| Structure (SMILES) | IC50 [nM] |
| --- | --- |
| C[C@@H]1CC[C@@H](Oc2nccn3ccnc23)CN1C(=O)c1ccccc1-n1nccn1 [Example 1, (2-(2H-1,2,3-triazol-2-yl)phenyl)((2R,5R)-5-(imidazo[1,2-a]pyrazin-8-yloxy)-2-methylpiperidin-1-yl)methanone] | 35.8 |
| C[C@@H]1CC[C@@H](Oc2nccn3ccnc23)CN1C(=O)c1ccccc1CS(C)(=O)=O [Example 2, ((2R,5R)-5-(imidazo[1,2-a]pyrazin-8-yloxy)-2-methylpiperidin-1-yl)(2-((methylsulfonyl)methyl)phenyl)methanone] | 59 |
| C[C@@H]1CC[C@@H](Oc2nccn3ccnc23)CN1C(=O)c1ccccc1CC(F)(F)F [Example 3, ((2R,5R)-5-(imidazo[1,2-α]pyrazin-8-yloxy)-2-methylpiperidin-1-yl)(2-(2,2,2-trifluoroethyl)phenyl)methanone] | 50.4 |
| CCCc1ccccc1C(=O)N1C[C@H](Oc2nccn3ccnc23)CC[C@H]1C [Example 4, ((2R,5R)-5-(imidazo[1,2-a]pyrazin-8-yloxy)-2-methylpiperidin-1-yl)(2-propylphenyl)methanone] | 31.9 |
| C[C@@H]1CC[C@@H](Sc2nccn3ccnc23)CN1C(=O)c1ccccc1-n1nccn1 [Example 5, (2-(2H-1,2,3-triazol-2-yl)phenyl)((2R,5R)-5-(imidazo[1,2-a]pyrazin-8-ylthio)-2-methylpiperidin-1-yl)methanone] | 10.3 |
| Cc1cn2ccnc(O[C@@H]3CC[C@@H](C)N(C(=O)c4ccccc4-n4nccn4)C3)c2n1 [Example 6, (2-(2H-1,2,3-triazol-2-yl)phenyl)((2R,5R)-2-methyl-5-((2-methylimidazo[1,2-a]pyrazin-8-yl)oxy)piperidin-1-yl)methanone] | 8 |
| Cc1cn2ccnc(O[C@@H]3CC[C@@H](C)N(C(=O)c4ccsc4-n4nccn4)C3)c2n1 [Example 7, (2-(2H-1,2,3-triazol-2-yl)thiophen-3-yl)((2R,5R)-2-methyl-5-((2-methylimidazo[1,2-a]pyrazin-8-yl)oxy)piperidin-1-yl)methanone] | 27.4 |
| Cc1cn2ccnc(O[C@@H]3CC[C@@H](C)N(C(=O)c4cscc4-n4nccn4)C3)c2n1 [Example 8, (4-(2H-1,2,3-triazol-2-yl)thiophen-3-yl)((2R,5R)-2-methyl-5-((2-methylimidazo[1,2-α]pyrazin-8-yl)oxy)piperidin-1-yl)methanone] | 39.1 |
| Cc1cn2ccnc(O[C@@H]3CC[C@@H](C)N(C(=O)c4ccccc4C4(C#N)CC4)C3)c2n1 [Example 9, 1-(2-((2R,5R)-2-methyl-5-((2-methylimidazo[1,2-α]pyrazin-8-yl)oxy)piperidine-1-carbonyl)phenyl)cyclopropanecarbonitrile] | 13.2 |
| Cc1cn2ccnc(O[C@@H]3CC[C@@H](C)N(C(=O)c4ccc(F)cc4-n4nccn4)C3)c2n1 [Example 10, (4-fluoro-2-(2H-1,2,3-triazol-2-yl)phenyl)((2R,5R)-2-methyl-5-((2-methylimidazo[1,2-α]pyrazin-8-yl)oxy)piperidin-1-yl)methanone] | 31.2 |
| Cc1cn2ccnc(O[C@@H]3CC[C@@H](C)N(C(=O)c4ccccc4-n4ncnn4)C3)c2n1 [Example 11, (2-(2H-tetrazol-2-yl)phenyl)((2R,5R)-2-methyl-5-((2-methylimidazo[1,2-α]pyrazin-8-yl)oxy)piperidin-1-yl)methanone] | 22.2 |
| Cc1cn2ccnc(O[C@@H]3CC[C@@H](C)N(C(=O)c4ccccc4CS(C)(=O)=O)C3)c2n1 [Example 12, ((2R,5R)-2-methyl-5-((2-methylimidazo[1,2-α]pyrazin-8-yl)oxy)piperidin-1-yl)(2-((methylsulfonyl)methyl)phenyl)methanone] | 46.2 |
| Cc1cn2ccnc(O[C@@H]3CC[C@@H](C)N(C(=O)c4cscc4-c4ncccn4)C3)c2n1 [Example 13, ((2R,5R)-2-methyl-5-((2-methylimidazo[1,2-a]pyrazin-8-yl)oxy)piperidin-1-yl)(4-(pyrimidin-2-yl)thiophen-3-yl)methanone] | 63.7 |
| Cc1cn2ccnc(O[C@@H]3CC[C@@H](C)N(C(=O)c4ccsc4-c4ncccn4)C3)c2n1 [Example 14, ((2R,5R)-2-methyl-5-((2-methylimidazo[1,2-α]pyrazin-8-yl)oxy)piperidin-1-yl) (2-(pyrimidin-2-yl)thiophen-3-yl)methanone] | 36.8 |
| Cc1cn2ccnc(O[C@@H]3CC[C@@H](C)N(C(=O)c4cccnc4OCC(F)F)C3)c2n1 [Example 15, (2-(2,2-difluoroethoxy)pyridin-3-yl)((2R,5R)-2-methyl-5-((2-methylimidazo[1,2-a]pyrazin-8-yl)oxy)piperidin-1-yl)methanone] | 41.7 |
| Cc1cn2ccnc(O[C@@H]3CC[C@@H](C)N(C(=O)c4cccnc4OCC(F)(F)F)C3)c2n1 [Example 16, ((2R,5R)-2-methyl-5-((2-methylimidazo [1,2-α]pyrazin-8-yl)oxy)piperidin-1-yl) (2-(2,2,2-trifluoroethoxy)pyridin-3-yl)methanone] | 33.5 |
| Cc1cn2ccnc(O[C@@H]3CC[C@@H](C)N(C(=O)c4cccnc4-c4ccccc4)C3)c2n1 [Example 17, ((2R,5R)-2-methyl-5-((2-methylimidazo [1,2-α]pyrazin-8-yl)oxy)piperidin-1-yl) (2-phenylpyridin-3-yl)methanone] | 68.4 |
| Cc1cn2ccnc(O[C@@H]3CC[C@@H](C)N(C(=O)c4cccnc4-n4cccn4)C3)c2n1 [Example 18, (2-(1H-pyrazol-1-yl)pyridin-3-yl) ((2R,5R)-2-methyl-5-((2-methylimidazo[1,2-α]pyrazin-8-yl)oxy)piperidin-1-yl)methanone] | 58.7 |
| Cc1cn2ccnc(N[C@@H]3CC[C@@H](C)N(C(=O)c4ccccc4-n4nccn4)C3)c2n1 [Example 19, (2-(2H-1,2,3-triazol-2-yl)phenyl)((2R,5R)-2-methyl-5-((2-methylimidazo[1,2-a]pyrazin-8-yl)amino)piperidin-1-yl)methanone] | 50.9 |
| CC(C)c1cn2ccnc(O[C@@H]3CC[C@@H](C)N(C(=O)c4ccccc4-n4nccn4)C3)c2n1 [Example 20, (2-(2H-1,2,3-triazol-2-yl)phenyl)((2R,5R)-5-((2-isopropylimidazo[1,2-a]pyrazin-8-yl)oxy)-2-methylpiperidin-1-yl)methanone] | 49 |
| C[C@@H]1CC[C@@H](Oc2nccn3cc(C(F)(F)F)nc23)CN1C(=O)c1ccccc1-n1nccn1 [Example 21, (2-(2H-1,2,3-triazol-2-yl)phenyl)((2R,5R)-2-methyl-5-((2-(trifluoromethyl)imidazo[1,2-a]pyrazin-8-yl)oxy)piperidin-1-yl)methanone] | 63.7 |
| C[C@@H]1CC[C@@H](Nc2nccn3cc(C(F)(F)F)nc23)CN1C(=O)c1ccccc1-n1nccn1 [Example 22, (2-(2H-1,2,3-triazol-2-yl)phenyl)((2R,5R)-2-methyl-5-((2-(trifluoromethyl)imidazo[1,2-a]pyrazin-8-yl)amino)piperidin-1-yl)methanone] | 45.4 |
| C[C@@H]1CC[C@@H](Nc2nccn3cc(C(F)(F)F)nc23)CN1C(=O)c1ccsc1-n1nccn1 [Example 23, (2-(2H-1,2,3-triazol-2-yl)thiophen-3-yl) ((2R,5R)-2-methyl-5-((2-(trifluoromethyl)imidazo[1,2-α]pyrazin-8-yl)amino)piperidin-1-yl)methanone] | 99.3 |
| C[C@@H]1CC[C@@H](Oc2nccn3cc(C#N)nc23)CN1C(=O)c1ccccc1-n1nccn1 [Example 24, 8-(((3R,6R)-1-(2-(2H-1,2,3-triazol-2-yl)benzoyl)-6-methylpiperidin-3-yl)oxy)imidazo[1,2-a]pyrazine-2-carbonitrile] | 88.2 |
| C[C@@H]1CC[C@@H](Oc2nccn3cc(CO)nc23)CN1C(=O)c1ccccc1-n1nccn1 [Example 25, (2-(2H-1,2,3-triazol-2-yl)phenyl)((2R,5R)-5-((2-(hydroxymethyl)imidazo[1,2-a]pyrazin-8-yl)oxy)-2-methylpiperidin-1-yl)methanone] | 49.3 |
| C[C@@H]1CC[C@@H](Oc2nccn3c(Cl)cnc23)CN1C(=O)c1ccccc1-n1nccn1 [Example 26, (2-(2H-1,2,3-triazol-2-yl)phenyl)((2R,5R)-5-((3-chloroimidazo[1,2-a]pyrazin-8-yl)oxy)-2-methylpiperidin-1-yl)methanone] | 12.1 |
